This is an account of results in patent publication US20230093399A1, “METHODS FOR GENERATING PLURIPOTENT STEM CELL-DERIVED BROWN FAT CELLS” (AgeX Therapeutics, Inc., priority 2013, published 2023).

For assay [1], the system named is cell line E72. Description: Differentiation of cell line E72 in HyStem, gene expression. The format is cell-based, human. The following applies: E72 passage 11; HyStem-C supplemented with 1.0 uM all-trans retinoic acid. The protocol:
HyStem-C (BioTime, Inc. Alameda, Calif.) (BioTime, Alameda, Calif., USA) was reconstituted following the manufacturer's instructions. Briefly, the HyStem component (thiol modified hyaluronan, 10 mg) was dissolved in 1.0 ml degassed deionized water for about 20 minutes to prepare a 1% w/v solution. The Gelin-S component (thiol modified gelatin, 10 mg) was dissolved in 1 ml degassed deionized water to prepare a 1% w/v solution, and PEGDA (PEG diacrylate, 10 mg) was dissolved in 0.5 ml degassed deionized water to prepare a 2% w/v solution. HyStem (1 ml, 1% w/v) was mixed with Gelin-S (1 ml, 1% w/v) immediately before use. Pelleted cells were resuspended in recently prepared HyStem:Gelin-S (1:1 v/v) mix described above. Upon the addition of crosslinker PEGDA, the cell suspension, at a final concentration of 2.0×10^7 cells/ml, was aliquoted at 25 μl aliquot four to five times into each well of 6 well plates (Corning 3516) after partial gelation to form attached beads. Following complete gelation (20 minutes), chondrogenic medium was added to each well (i.e about 4 ml/each well of a 6 well plate). […]
The Gelin-S® component (10 mg of thiol-modified gelatin (BioTime)) is dissolved in 1.0 ml of degassed deionized water to prepare a 1% w/v solution, and polyethylene glycol diacrylate (10 mg of PEGDA) is dissolved in 0.5 ml of degassed deionized water to prepare a 2% w/v solution. […] At the desired time point, hydrogel constructs were either fixed and processed for immunohistochemical analysis or lysed using RLT (Qiagen, CA, USA) with 1% beta-mercaptoethanol for total RNA to analyze transcript expression using quantitative real-time PCR (qRT-PCR) and/or whole-genome microarray.
Total RNA was extracted directly from cells growing in 6-well plates or 10 cm tissue culture dishes using Qiagen RNeasy mini kits according to the manufacturer's instructions. RNA concentrations were measured using a Beckman DU530 or Nanodrop spectrophotometer and RNA quality was determined by denaturing agarose gel electrophoresis or using an Agilent 2100 bioanalyzer. […] The cRNA was hybridized to Illumina BeadChips, processed, and read using a BeadStation array reader according to the manufacturer's instructions (Illumina, San Diego, Calif., USA).

The subject of assay [2] is NP110SM cells. Nature of the assay: Differentiation of clonal embryonic progenitor line NP110SM in HyStem beads, Illumina microarray gene expression. It is filed as cell-based, human. The following applies: NP110SM; 10 M CL316243 together with 50 ng/ml BMP4 and 5.0 μM rosiglitazone; FIG. 15 lane 9. Here is the method:
(§1) Differentiation medium is high glucose DMEM (CellGro Cat. No. 15-013-CV) with Pyruvate, 1 mM (Gibco Cat. 11360), Pen:Strep 100U/ml:100 ug/ml (Gibco Cat. No. 504284), Glutamax 2 mM (Gibco Cat. No. 35050), Dexamethasone 0.1 uM (Sigma, St. Louis, Mo., Cat. No. D1756-100), L-Proline 0.35 mM (Sigma Cat. No. D49752), 2-phospho-L-Ascorbic Acid 0.17 mM (Sigma, Cat. No. 49792, Fluka), and ITS Premix (BD, Franklin Lakes, N.J., sterile Cat. No. 47743-628) with a final concentration 6.25 ug/ml insulin, 6.25 ug/ml transferrin, 6.25 ng/ml selenious acid, serum albumin 1.25 mg/ml, 5.35 ug/ml linoleic acid. In various differentiation conditions, the Differentiation medium is supplemented with various growth factors or other differentiation factors as described herein.
HyStem-C (BioTime, Inc. Alameda, Calif.) is a matrix composed of thiol-modified gelatin and thiolated hyaluronan crosslinked in vivo or in vitro with (polyethylene glycol diacrylate (PEGDA). We observed that clonal human embryonic progenitor cell lines such as those described in the present invention, could be efficiently differentiated in high-density cultures of said crosslinked collagen and hyaluronate in the following manner. HyStem-C® (BioTime, CA, USA) is reconstituted following the manufacturer's instructions. Briefly, the HyStem component (10 mg of thiol-modified hyaluronan) is dissolved in 1.0 ml of degassed deionized water for approximately 20 min to prepare a 1% w/v solution. The Gelin-S® component (10 mg of thiol-modified gelatin (BioTime)) is dissolved in 1.0 ml of degassed deionized water to prepare a 1% w/v solution, and polyethylene glycol diacrylate (10 mg of PEGDA) is dissolved in 0.5 ml of degassed deionized water to prepare a 2% w/v solution. Then, HyStem (1 ml, 1% w/v) is mixed with Gelin-S (1 ml, 1% w/v) immediately before use. Pelleted cells are resuspended in the recently prepared HyStem:Gelin-S (1:1 v/v) mix described above. Upon the addition of the PEGDA cross-linker, the cell suspension, at a final concentration of 2.0×10^7 cells/ml is aliquoted (25 μl/aliquot) into six-well plates (Corning® 3516; VWR, PA, USA) after partial gelation. Following complete gelation (20 min), Differentiation Medium is added to each well. Plates were then placed in a humidified incubator at 37° C. with ambient O2 and 10% CO2, and the cells were fed three-times weekly. At the desired time point, hydrogel constructs were either fixed and processed for immunohistochemical analysis or lysed using RLT (Qiagen, CA, USA) with 1% beta-mercaptoethanol for total RNA to analyze transcript expression using quantitative real-time PCR (qRT-PCR) and/or whole-genome microarray.
(§2) Total RNA was extracted directly from cells growing in 6-well plates or 10 cm tissue culture dishes using Qiagen RNeasy mini kits according to the manufacturer's instructions. RNA concentrations were measured using a Beckman DU530 or Nanodrop spectrophotometer and RNA quality was determined by denaturing agarose gel electrophoresis or using an Agilent 2100 bioanalyzer. Whole-genome expression analysis was carried out using Illumina Human Ref-8v3 or Human HT-12 v4 BeadArrays, and RNA levels for certain genes were confirmed by qRT-PCR. For the Illumina BeadArrays, total RNA was linearly amplified and biotin-labeled using Illumina TotalPrep kits (Life Technologies, Temecula, Calif., USA), and cRNA was quality-controlled using an Agilent 2100 Bioanalyzer. The cRNA was hybridized to Illumina BeadChips, processed, and read using a BeadStation array reader according to the manufacturer's instructions (Illumina, San Diego, Calif., USA). Values of less than 120 relative fluorescence units (RFUs) were considered as nonspecific background signal.
The line NP110SM was then exposed to differentiation in the BAT cell differentiation protocols described herein. […]

Assay [3] relates to cell line E3. Nature of the assay: Differentiation of clonal hEP cell line E3 in HyStem beads, Illumina microarray gene expression. The format is cell-based, human. Here is the method: as §1
(§3) The Gelin-S® component (10 mg of thiol-modified gelatin (BioTime)) is dissolved in 1.0 ml of degassed deionized water to prepare a 1% w/v solution, and polyethylene glycol diacrylate (10 mg of PEGDA) is dissolved in 0.5 ml of degassed deionized water to prepare a 2% w/v solution. Then, HyStem (1 ml, 1% w/v) is mixed with Gelin-S (1 ml, 1% w/v) immediately before use. Pelleted cells are resuspended in the recently prepared HyStem:Gelin-S (1:1 v/v) mix described above. Upon the addition of the PEGDA cross-linker, the cell suspension, at a final concentration of 2.0×10^7 cells/ml is aliquoted (25 μl/aliquot) into six-well plates (Corning® 3516; VWR, PA, USA) after partial gelation. Following complete gelation (20 min), Differentiation Medium is added to each well. Plates were then placed in a humidified incubator at 37° C. with ambient O2 and 10% CO2, and the cells were fed three-times weekly. At the desired time point, hydrogel constructs were either fixed and processed for immunohistochemical analysis or lysed using RLT (Qiagen, CA, USA) with 1% beta-mercaptoethanol for total RNA to analyze transcript expression using quantitative real-time PCR (qRT-PCR) and/or whole-genome microarray.
as §2

Assay [4] deals with Bone marrow-derived mesenchymal stem cells (MSCs). Description: Differentiation of bone marrow-derived MSCs in HyStem-C beads, FABP4 expression. The format is cell-based. The following applies: 14 days, 50 ng/mL BMP2, or 10 ng/mL BMP4, or 100 ng/mL BMP7. The protocol: as §3

As for `CC1=C(/C=C/C(C)=C/C=C/C(C)=C/C(=O)O)C(C)(C)CCC1` [all-trans retinoic acid, reference compound], in assay [1], the “expression of HOXB6, a marker of lateral plate mesenchyme” value is given as “induced the expression of HOXB6”.

With `C[C@H](Cc1ccc2c(c1)OC(C(=O)[O-])(C(=O)[O-])O2)NC[C@H](O)c1cccc(Cl)c1.[Na+].[Na+]` [CL316243, reference compound], in assay [2], the UCP1 expression entry is listed as “appeared to further increase”.

In the case of `O=C(Nc1ccncc1)c1cc([N+](=O)[O-])ccc1Cl` [T0070907, reference compound], the C19ORF80 expression result in assay [3] (HyStem with 10 ng/ml BMP4 plus T0070907, compared to HyStem BMP4 alone, cell line not restated) is “decreased C19ORF80 expression”. Besides, the THRSP expression result in assay [3] (presence of the PPARγ antagonist T0070907, FIG. 7, cell line not restated) is given as “decreased to nearly undetectable levels”.

Take `CN(CCOc1ccc(CC2SC(=O)NC2=O)cc1)c1ccccn1` (stereo not drawn) [rosiglitazone, reference compound]: the ADIPOQ transcript expression in assay [3] (E3, HyStem beads with 1.0 μM rosiglitazone, FIG. 3) was > 5,000 RFUs. In assay [3] (E3, HyStem beads, 1.0 μM rosiglitazone in combination with 100 ng/ml BMP7, values greater than 160 RFUs above background), the UCP1 transcript expression was found to be 161 RFUs.

B1: BMP7: Bone Morphogenetic Protein 7, TGF-beta superfamily member (protein, UniProt P18075 293-431, looked up)
Bone morphogenetic protein 7: STGSKQRSQNRSKTPKNQEALRMANVAENSSSDQRQACKKHELYVSFRDLGWQDWIIAPEGYAAYYCEGECAFPLNSYMNATNHAIVQTLVHFINPETVPKPCCAPTQLNAISVLYFDDSSNVILKKYRNMVVRACGCH
Consider B1, for which, in assay [3] (E3, HyStem beads with 10 ng/ml BMP4 or 100 ng/ml BMP7, FIG. 5), the PCK1 transcript expression result is “relatively high levels”. Moreover, in assay [3] (E3, HyStem supplemented with 100 ng/ml BMP7), the “expression of C19ORF80” value is given as “highest expression”. Besides, the “differentiation into adipocytes as evidenced by expression of FABP4” value in assay [4] is recorded as “caused the differentiation of the cells into adipocytes”.
